Test results from patent US8329707B2, “Substituted pyrazine compounds” (Astellas Pharma Inc., priority 2008, dated 2012).
Counter-ions that a name gives are not always drawn.

tested on: ICR mouse; assay: Oral glucose tolerance test in normal mouse; assay type: in vivo; settings: ICR mouse fasted overnight; 10 mg/kg oral, glucose loading after 30 minutes; AUC lowering rate of blood glucose up to 2 hours after glucose loading vs solvent control
Procedure: The test compound was dissolved in a solvent (5% Cremophor, aqueous 5% DMSO solution), and to an ICR mouse after fasting overnight was orally administered 10 mg/kg of the test compound, and after 30 minutes, oral glucose loading was carried out. Immediately before the administration of the test compound, immediately before the glucose loading, and 0.25, 0.5, 1, and 2 hours after the glucose loading, blood was collected and blood glucose levels were measured. An AUC lowering rate (%) of the blood glucose levels from immediately before the glucose loading to 2 hours after the glucose loading with respect to that of the solvent control group was calculated.

Compound	inhibition in vivo at 10 mg/kg [%]
Cc1ccc(NC(=O)[C@H](C[C@H]2CCC(=O)C2)c2ccc(S(=O)(=O)C3CC3)c(C3CC3)c2)nc1 [Example 9, (2R)-2-[3-cyclopropyl-4-(cyclopropylsulfonyl)phenyl]-N-(5-methylpyridin-2-yl)-3-[(1R)-3-oxocyclopentyl]propanamide monohydrochloride]	52
CC(C)(O)COc1cnc(NC(=O)[C@H](C[C@H]2CCC(=O)C2)c2ccc(S(=O)(=O)C3CC3)c(C3CC3)c2)cn1 [Example 10, (2R)-2-[3-cyclopropyl-4-(cyclopropylsulfonyl)phenyl]-N-[5-(2-hydroxy-2-methylpropoxy)pyrazin-2-yl]-3-[(1R)-3-oxocyclopentyl]propanamide]	51
CC(=O)c1csc(NC(=O)[C@H](C[C@H]2CCC(=O)C2)c2ccc(S(=O)(=O)C3CC3)c(C3CC3)c2)n1 [Example 51]	55

target: T1, recombinant human hepatic type GK (GST-hGK2) (Homo sapiens, UniProt P35557); assay: Measurement of glucokinase (GK) activation; assay type: biochemical; settings: 10 min, read-out: GK activation (%)
T1 construct: made in house; host or cells: Escherichia coli BL21
T1 sequence (P35557 1-466 isoform P35557-2): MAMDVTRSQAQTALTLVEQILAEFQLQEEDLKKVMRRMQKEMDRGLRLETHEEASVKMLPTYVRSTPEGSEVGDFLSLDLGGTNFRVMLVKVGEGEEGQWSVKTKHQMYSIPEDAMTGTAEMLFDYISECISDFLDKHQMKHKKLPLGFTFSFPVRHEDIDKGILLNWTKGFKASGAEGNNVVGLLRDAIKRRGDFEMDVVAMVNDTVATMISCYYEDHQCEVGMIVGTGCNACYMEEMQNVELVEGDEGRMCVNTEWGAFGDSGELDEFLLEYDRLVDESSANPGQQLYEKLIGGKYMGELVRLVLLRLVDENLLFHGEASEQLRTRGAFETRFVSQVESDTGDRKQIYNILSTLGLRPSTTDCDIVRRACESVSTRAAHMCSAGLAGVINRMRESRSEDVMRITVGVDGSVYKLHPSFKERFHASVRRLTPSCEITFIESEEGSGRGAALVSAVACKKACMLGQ
Procedure: The present test was carried out in accordance with the method described in Science 301: 370-373, 2003 and with partial modification thereof. Hereinafter, the summary is described.
First, the cloning of GK (GenBank No. AK122876) was carried out. 5′-[…]-3′(SEQ ID NO: 1) and 5′-[…]-3′(SEQ ID NO: 2) were used as primers, and pME18S-FL3-Glucokinase isoform 2 was used as a template to carry out PCR. The obtained reaction product was TA-cloned into a pGEM-T easy vector, digested with EcoRI and XhoI, and introduced to the pGEX-5X-1 vector digested in the same manner by ligation. By using this plasmid DNA (pGEX-human Glucokinase 2), a recombinant human hepatic type GK (GST-hGK2) fused with GST (Glutathione S-transferase) was expressed in Escherichia coli (BL21 strain) and purified by Glutathione Sepharose.
The reaction of GK was carried out at 27° C. on a 96-well plate. First, 1 μL of the test compound (final concentration 10 μM) that has been diluted with dimethylsulfoxide (DMSO) was added to 89 μL of an enzyme mixed liquid (all final concentration 25 mM HEPES pH 7.4, 25 mM KCl, 2 mM MgCl2, 1 mM ATP, 0.1% BSA, 1 mM DTT, 1 mM NADP (nicotinamide adenine dinucleotide phosphate), 2.5 U/ml glucose-6-phosphate dehydrogenase, GST-hGK2 adjusted to ΔODCont of about 0.05 to 0.10). Subsequently, 10 μL of a substrate solution (final concentration 5 mM glucose) was added to start the reaction. In order to quantify a final product NADPH, an absorbance at a wavelength of 340 nm was measured, and the GK activation (%) of the test compound was calculated from the increase of absorbance during the first 10 minutes (ΔOD) after initiation of the reaction. GK activation (%)=[(ΔODTest)−(ΔODCont)]/(ΔODCont)×100
ΔODTest: ΔOD at test compound

Compound	activation at 10 µM [%]
O=C1CCC(/C=C(/C(=O)Nc2cnc(C(O)CO)cn2)c2ccc(S(=O)(=O)C3CC3)c(C3CC3)c2)C1 (stereo not shown) [Example 38]	386
CC(=O)c1csc(NC(=O)/C(=C/[C@H]2CCC(=O)C2)c2ccc(S(=O)(=O)C3CC3)c(C3CC3)c2)n1 [Example 44]	389

same assay, conditions: 10 min; test compound final concentration 10 μM; 5 mM glucose; 27° C.; increase of absorbance at 340 nm during first 10 minutes vs DMSO; read-out: GK activation (%)

activation at 10 µM [%]	Compound
328	O=C(Nc1ccn(CC(O)CO)n1)/C(=C/C1CCCC1)c1ccc(S(=O)(=O)C2CC2)c(C2CC2)c1 (stereo in doubt) [Example 3, (2E)-3-cyclopentyl-2-[3-cyclopropyl-4-(cyclopropylsulfonyl)phenyl]-N-{1-[(2S)-2,3-dihydroxypropyl]-1H-pyrazol-3-yl}acrylamide]
330	O=C(Nc1ccn(CCCO)n1)/C(=C/C1CCCC1)c1ccc(S(=O)(=O)C2CC2)c(C2CC2)c1 [Example 1, (2E)-3-cyclopentyl-2-[3-cyclopropyl-4-(cyclopropylsulfonyl)phenyl]-N-[1-(3-hydroxypropyl)-1H-pyrazol-3-yl]acrylamide]
365	Cn1ccc(NC(=O)/C(=C/C2CCOCC2)c2ccc(S(=O)(=O)C3CC3)c(C3CC3)c2)n1 [Example 2, (2E)-2-[3-cyclopropyl-4-(cyclopropylsulfonyl)phenyl]-N-(1-methyl-1H-pyrazol-3-yl)-3-(tetrahydro-2H-pyran-4-yl)acrylamide]
410	O=C1CC[C@H](/C=C(/C(=O)Nc2ccc(C(=O)O)cn2)c2ccc(S(=O)(=O)C3CC3)c(C3CC3)c2)C1 [Example 5, 6-({(2E)-2-[3-cyclopropyl-4-(cyclopropylsulfonyl)phenyl]-3-[(1S)-3-oxocyclopentyl]prop-2-enoyl}amino)nicotinic acid monohydrochloride]
336	O=C1CCC(/C=C(/C(=O)Nc2cnc(CO)cn2)c2ccc(S(=O)(=O)C3CC3)c(C3CC3)c2)C1 (stereo not shown) [Example 6, (2E)-2-[3-cyclopropyl-4-(cyclopropylsulfonyl)phenyl]-N-[5-(hydroxymethyl)pyrazin-2-yl]-3-(3-oxocyclopentyl)acrylamide]
418	O=C1CC[C@H](/C=C(/C(=O)Nc2nc3ccc(OCCO)nc3s2)c2ccc(S(=O)(=O)C3CC3)c(C3CC3)c2)C1 [Example 7, (2E)-2-[3-cyclopropyl-4-(cyclopropylsulfonyl)phenyl]-N-[5-(2-hydroxyethoxy)[1,3]thiazolo[5,4-b]pyridin-2-yl]-3-[(1S)-3-oxocyclopentyl]acrylamide]
333	Cc1ccc(NC(=O)[C@H](C[C@H]2CCC(=O)C2)c2ccc(S(=O)(=O)C3CC3)c(C3CC3)c2)nc1 [Example 9, (2R)-2-[3-cyclopropyl-4-(cyclopropylsulfonyl)phenyl]-N-(5-methylpyridin-2-yl)-3-[(1R)-3-oxocyclopentyl]propanamide monohydrochloride]
357	CC(C)(O)COc1cnc(NC(=O)[C@H](C[C@H]2CCC(=O)C2)c2ccc(S(=O)(=O)C3CC3)c(C3CC3)c2)cn1 [Example 10, (2R)-2-[3-cyclopropyl-4-(cyclopropylsulfonyl)phenyl]-N-[5-(2-hydroxy-2-methylpropoxy)pyrazin-2-yl]-3-[(1R)-3-oxocyclopentyl]propanamide]
345	Cn1ccc(NC(=O)/C(=C/C2CCCC2)c2ccc(S(=O)(=O)C3CC3)c(C3CC3)c2)n1 [Example 24]
334	Cn1ccc(NC(=O)/C(=C/C2CCOC2)c2ccc(S(=O)(=O)C3CC3)c(C3CC3)c2)n1 (stereo not shown) [Example 25]
231	O=C(Nc1ncc(Cl)s1)/C(=C/C1CCOCC1)c1ccc(S(=O)(=O)C2CC2)c(C2CC2)c1 [Example 26]
211	O=C(Nc1ncc(Cl)s1)/C(=C/C1CCOC1)c1ccc(S(=O)(=O)C2CC2)c(C2CC2)c1 (stereo not shown) [Example 27]
314	Cc1cnc(NC(=O)/C(=C/C2CCOCC2)c2ccc(S(=O)(=O)C3CC3)c(C3CC3)c2)cn1 [Example 28]
300	Cc1cnc(NC(=O)/C(=C/C2CCOC2)c2ccc(S(=O)(=O)C3CC3)c(C3CC3)c2)cn1 (stereo not shown) [Example 29]
309	O=C(Nc1ccn(C[C@H](O)CO)n1)/C(=C/C1CCCC1)c1ccc(S(=O)(=O)C2CC2)c(C2CC2)c1 [Example 30]
387	Cc1cnc(NC(=O)/C(=C/C2CCC(=O)C2)c2ccc(S(=O)(=O)C3CC3)c(C3CC3)c2)cn1 (stereo not shown) [Example 31]
410	Cn1ccc(NC(=O)/C(=C/C2CCC(=O)C2)c2ccc(S(=O)(=O)C3CC3)c(C3CC3)c2)n1 (stereo not shown) [Example 32]
375	O=C1CCC(/C=C(/C(=O)Nc2ncc(Cl)s2)c2ccc(S(=O)(=O)C3CC3)c(C3CC3)c2)C1 (stereo not shown) [Example 33]

activation at 10 µM [%]	Compound
245	Cc1cnc(NC(=O)/C(=C/[C@@H]2CCC(=O)C2)c2ccc(S(=O)(=O)C3CC3)c(C3CC3)c2)cn1 [Example 34]
265	O=C1CC[C@@H](/C=C(/C(=O)Nc2ncc(Cl)s2)c2ccc(S(=O)(=O)C3CC3)c(C3CC3)c2)C1 [Example 35]
260	Cn1ccc(NC(=O)/C(=C/[C@@H]2CCC(=O)C2)c2ccc(S(=O)(=O)C3CC3)c(C3CC3)c2)n1 [Example 37]
286	CC(=O)c1cnc(NC(=O)/C(=C/[C@H]2CCC(=O)C2)c2ccc(S(=O)(=O)C3CC3)c(C3CC3)c2)s1 [Example 39]
397	O=C1CC[C@H](/C=C(/C(=O)Nc2nccs2)c2ccc(S(=O)(=O)C3CC3)c(C3CC3)c2)C1 [Example 40]
362	O=C1CC[C@H](/C=C(/C(=O)Nc2ncc(Cl)s2)c2ccc(S(=O)(=O)C3CC3)c(C3CC3)c2)C1 [Example 41]
391	O=C1CC[C@H](/C=C(/C(=O)Nc2nc([C@H](O)CO)cs2)c2ccc(S(=O)(=O)C3CC3)c(C3CC3)c2)C1 [Example 43]
377	Cc1ccc(NC(=O)/C(=C/[C@H]2CCC(=O)C2)c2ccc(S(=O)(=O)C3CC3)c(C3CC3)c2)nc1 [Example 45]
392	O=C1CC[C@H](/C=C(/C(=O)Nc2nc(CF)cs2)c2ccc(S(=O)(=O)C3CC3)c(C3CC3)c2)C1 [Example 46]
297	O=C1CC[C@H](/C=C(/C(=O)Nc2ncc(F)s2)c2ccc(S(=O)(=O)C3CC3)c(C3CC3)c2)C1 [Example 47]
257	Cc1cnc(NC(=O)/C(=C/[C@H]2CCC(=O)C2)c2ccc(S(=O)(=O)C3CC3)c(C3CC3)c2)s1 [Example 48]
352	CC(=O)c1csc(NC(=O)[C@H](C[C@H]2CCC(=O)C2)c2ccc(S(=O)(=O)C3CC3)c(C3CC3)c2)n1 [Example 51]
337	CC(=O)c1cnc(NC(=O)[C@H](C[C@H]2CCC(=O)C2)c2ccc(S(=O)(=O)C3CC3)c(C3CC3)c2)cn1 [Example 74]
307	CC(C)(O)c1cnc(NC(=O)[C@H](C[C@H]2CCC(=O)C2)c2ccc(S(=O)(=O)C3CC3)c(C3CC3)c2)cn1 [Example 75]
211	Cc1ccc(NC(=O)[C@H](C[C@H]2CCC(O)C2)c2ccc(S(=O)(=O)C3CC3)c(C3CC3)c2)nc1 (stereo partly shown) [Example 81]
257	Cn1ccc(NC(=O)[C@H](C[C@H]2CCC(O)C2)c2ccc(S(=O)(=O)C3CC3)c(C3CC3)c2)n1 (stereo partly shown) [Example 85]
326	O=C1CC[C@H](C[C@@H](C(=O)Nc2cnc(CCO)cn2)c2ccc(S(=O)(=O)C3CC3)c(C3CC3)c2)C1 [Example 99]
